{"source": "patent US6362220B1", "about": "“Anticonvulsant derivatives useful in reducing blood glucose levels” (Ortho-McNeil Pharmaceutical, Inc., priority 1999, dated 2002)", "key": {"[1]": {"conditions": "animal model of kindled epilepsy; cited from earlier work"}, "[2]": {"conditions": "human epilepsy; adjunctive therapy or monotherapy; cited from earlier work"}, "[3]": {"test": "retrospective analysis of long term open-label studies in epilepsy: blood glucose", "format": "in vivo, human", "conditions": "14 epilepsy patients, overweight (>100 kg) with high blood glucose (>115 mg/dl); study mean daily dosage 622 mg/day, mean duration 689 days"}, "[4]": {"conditions": "several rodent models; cited from earlier work"}}, "data": [{"smiles": "CC1(C)O[C@@H]2[C@@H](CO[C@@]3(COS(N)(=O)=O)OC(C)(C)O[C@@H]23)O1", "note": "[topiramate, 2,3:4,5-bis-O-(1-methylethylidene)-β-D-fructopyranose sulfamate]", "values": [{"measurement": "seizure block in kindled epilepsy model", "setting": "[1]", "result": "effectively block seizures"}, {"measurement": "efficacy in treating seizures in clinical trials", "setting": "[2]", "result": "effective as adjunctive therapy or as monotherapy"}, {"measurement": "reduction in blood glucose", "setting": "[3]", "result": 5.8, "unit": "%"}, {"measurement": "seizure block in rodent models of epilepsy", "setting": "[4]", "result": "effectively block seizures"}]}]}
